# Results: paper PMC4914250, “Cancer therapeutic approach based on conformational stabilization of mutant p53 protein by small peptides” (Oncotarget, 2016)
# System: mutp53 in SK3 cell extract
# Test: ELISA of mutp53 DNA binding (p53RE oligonucleotide), SK3;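 further: 0 means no effect and 6 means as or more effective than positive control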
# Format: biochemical, human
# Settings: score 0-6 compared to positive control
# Description: Next, we assessed the ability of our selected peptides to restore sequence-specific DNA binding to mutp53. To that end we employed an ELISA kit (R&D) in which cell extracts containing p53 are reacted with a biotinylated p53RE oligonucleotide and then incubated in wells coated with anti-p53 antibody, which is expected to trap the p53 protein and its associated p53RE DNA. The amount of p53RE retained in each well via p53 binding is quantified by incubation with streptavidin-HRP. […] Again, extracts of MCF7 and H1299-tsp53^A135V cells served as positive controls for WTp53 DNA binding activity. […] Importantly, there was substantial overlap between the peptides that stabilized the WT conformation (Figure 2A) and those that increased specific DNA binding (Figure 2B), further reinforcing the conclusion that those peptides stabilize mutp53 in a functional state. This was not seen with the randomly selected peptides 1-6 (black bars).
# For these experiments, a commercial p53/DNA binding kit of “R&D” (Cat-DYC1355-5 Lot-1273366FA) was used, in accordance with manufacturer guide lines. Briefly, 96 well plates we coated with anti-p53 antibody overnight. Cell extracts containing p53 are reacted with an oligonucleotide that contains a p53 consensus binding site (provided in the kit), labeled with Biotin, in the presence or absence (NT) of test peptides. WT p53 is expected to bind this DNA binding site as well as to the antibody coating the test wells of the plate. Excess p53 and oligos were washed away and streptavidin-HRP was used to quantify the amount of oligos in the well, which is proportional to the DNA bound by p53. TMB assay was performed to determine HRP (ES001-1L-K) levels (450nm).
row,Substance,DNA SK3
1,"myr-PRVLPSPHTIHPSQYP [pCAP-229, myristoylated peptide, similarity to HIPK2]",3
2,"SFILFIRRGRLGRRRRRRRRR [pCAP-60R, pCAP-60 with poly arginine tail]",2
3,"WNHHHSTPHPAHRRRRRR [pCAP-97R, pCAP-97 with poly arginine tail]",3
4,myr-RRLIVRILKLPNPPER [pCAP-242],4
5,myr-RRKHNKHRPEPDSDER [pCAP-221],3
6,myr-RRIRDPRILLLHFD [pCAP-325],3
7,LHSKTLVL [pCAP-17],3
8,HANLHHT [pCAP-87],2
9,"myr-RRKILFIRLMHNKH [pCAP-227, myristoylated peptide, similarity to GAS2]",3
10,"LRCLLLLIGRVGRRRRRRRR [pCAP-24R, pCAP-24 with poly arginine tail]",3
11,HSSHHHPVHSWN [pCAP-83],2
12,LRCLLLLIGRVG [pCAP-24],3
13,YPTQGHLR [pCAP-36],2
14,WNHHHSTPHPAH [pCAP-97],2

# System: p53 target genes in ES2 cells
# Test: Induction of p53 target genes by qRT-PCR, ES2
# Format: cell-based, human
# Settings: peptide 5ug/ml, 18 hours; ES2 versus ES2 p53KO
# Description: Since p53 works primarily as a transcription factor, we tested the ability of lead peptides to induce p53 target gene activation. To that end we used H1299-tsp53^V135A cells, which express temperature sensitive (ts) p53 and allow examination of WT and mutant p53 states in the same cellular background. In the representative experiment shown in Figure 3A, cells were exposed to the indicated peptides (5μg/ml) and then either transferred to 32°C or placed back at 37°C. Cells were harvested 18 hours later, and mRNA was extracted and subjected to qRT-PCR analysis. Expression levels of 3 representative p53 target genes, p21, PUMA and Mdm2, were examined. Values were normalized to non-treated cells at 37°C, and expression at 32°C, where the ts-p53 is in a WT conformation, served as positive control. […] A similar analysis was performed on ES2 ovarian cancer cells, expressing endogenous mp53^S241F, compared to ES2 p53KO cells (Figure 3B).
# Figure 3 Peptides binding to p53 and their effect on the expression of p53 target genes A. - Bar graph illustrating the effect of selected peptides on activation of mutp53 by measuring transactivation of p53 target genes as determined by qRT-PCR. H1299 cells stably transfected with mutp53 (ts) A135V were used. The indicated peptides were added directly to the medium at a concentration of 5ug/ml and cells were then either moved to 32°C or returned to 37°C. 18 hours later cells were harvested, extracted for RNA, cDNA was synthesis subjected to qrt time PCR analysis. The expression level of 3 representative p53 target genes, p21, PUMA and Mdm2, were examined. The figure illustrates the relative fold induction of transcription of the cells treated with the selected peptides as compared to non-treated cells. B. - Bar graph illustrating the effect of selected peptides on activation of mutp53 by measuring transactivation of p53 target genes as determined by qRT-PCR. ES2and ES2-p53KO cells were treated with indicated peptides 5ug/ml, for 18 hours. Cells were harvested, and cDNA was subjected to qRT-PCR analysis. Expression of 4 representative p53 target genes, p21, PUMA, Mdm2 and CD95, was examined. The figure illustrates the relative fold induction of transcription in cells treated with the selected peptides compared to non-treated cells. C. - Binding of mutp53 to promoters of representative p53 target genes in live cells, assessed by chromatin immunoprecipitation. BT-549 breast cancer cells endogenously expressing mutant p53^R249S were treated for 5 hours with a mix of 3 pCAPs - 250, 242 and 325. Cells treated with a mix of inert peptides served as a negative control. DNA cross-linked p53 was immunoprecipitated, and binding to the p53 responsive elements of the PUMA, p21, CD95 and MDM2 gene promoters was quantified by qPCR. Results were normalized to input total DNA. Cell extracts immunoprecipitated with beads without antibody (beads) served as negative controls. A genomic segment containing no p53RE served as negative control (white and gray bars). D. - ELISA analysis of the binding of WTp53 and mutp53 to lead peptides. Peptides were conjugated to the bottoms of the wells of 96 well plates, employing a commercial conjugation kit (TAKARA). Control wells were coated with the αp53 monoclonal antibodies PAb1801, PAb1620 and PAb240. Recombinant WTp53 or mutp53R175H was added to the wells and incubated with the bound peptides or antibodies. Where indicated, soluble peptides were added as competitors (+ comp), to confirm the specificity of the binding to p53. pCAP-76 served as a negative control peptide. After removal of recombinant protein, plates were washed and incubated with αp53-HRP followed by TMB and optical density determination. Results are presented as relative absorbance at 450nm. […] See Materials and Methods for details.
# Figure 4 Peptides trigger apoptosis in correlation to activation of WTp53 target genes A., C. - Apoptosis of ES2 cells treated with peptides. […]
row,Substance,"expression of the p53 target genes, ES2"
1,"SFILFIRRGRLGRRRRRRRRR [pCAP-60R, pCAP-60 with poly arginine tail]",significant increase
2,"WNHHHSTPHPAHRRRRRR [pCAP-97R, pCAP-97 with poly arginine tail]",significant increase
3,IRGRIIR [pCAP-54],significant increase
4,"LRCLLLLIGRVGRRRRRRRR [pCAP-24R, pCAP-24 with poly arginine tail]",significant increase

# Same assay, conditions: score 0-6 compared to positive control; induction of p53 target genes by qRT-PCR
row,Substance,PCR ES2
1,"EVTFRHSVV [pCAP-1, randomly selected peptide used as inert comparison]",3
2,"myr-PRVLPSPHTIHPSQYP [pCAP-229, myristoylated peptide, similarity to HIPK2]",3
3,"WNHHHSTPHPAHRRRRRR [pCAP-97R, pCAP-97 with poly arginine tail]",5
4,myr-RRLIVRILKLPNPPER [pCAP-242],4
5,HHPWTHHQRWS [pCAP-20],4
6,myr-RRKHNKHRPEPDSDER [pCAP-221],4
7,HANLHHT [pCAP-87],2
8,"myr-RRKILFIRLMHNKH [pCAP-227, myristoylated peptide, similarity to GAS2]",5
9,"LRCLLLLIGRVGRRRRRRRR [pCAP-24R, pCAP-24 with poly arginine tail]",4
10,YRRLLIGMMWRRRRRRRRR [pCAP-68],3
11,WNHHHSTPHPAH [pCAP-97],5
